# According to BindingDB's records for doi:10.1002/cmdc.200500009 (Bayer Healthcare, 2006):
# Molecular target: T1, Endothelin-converting enzyme 1 (Rattus norvegicus, UniProt P42893)
# T1 sequence (P42893 whole entry): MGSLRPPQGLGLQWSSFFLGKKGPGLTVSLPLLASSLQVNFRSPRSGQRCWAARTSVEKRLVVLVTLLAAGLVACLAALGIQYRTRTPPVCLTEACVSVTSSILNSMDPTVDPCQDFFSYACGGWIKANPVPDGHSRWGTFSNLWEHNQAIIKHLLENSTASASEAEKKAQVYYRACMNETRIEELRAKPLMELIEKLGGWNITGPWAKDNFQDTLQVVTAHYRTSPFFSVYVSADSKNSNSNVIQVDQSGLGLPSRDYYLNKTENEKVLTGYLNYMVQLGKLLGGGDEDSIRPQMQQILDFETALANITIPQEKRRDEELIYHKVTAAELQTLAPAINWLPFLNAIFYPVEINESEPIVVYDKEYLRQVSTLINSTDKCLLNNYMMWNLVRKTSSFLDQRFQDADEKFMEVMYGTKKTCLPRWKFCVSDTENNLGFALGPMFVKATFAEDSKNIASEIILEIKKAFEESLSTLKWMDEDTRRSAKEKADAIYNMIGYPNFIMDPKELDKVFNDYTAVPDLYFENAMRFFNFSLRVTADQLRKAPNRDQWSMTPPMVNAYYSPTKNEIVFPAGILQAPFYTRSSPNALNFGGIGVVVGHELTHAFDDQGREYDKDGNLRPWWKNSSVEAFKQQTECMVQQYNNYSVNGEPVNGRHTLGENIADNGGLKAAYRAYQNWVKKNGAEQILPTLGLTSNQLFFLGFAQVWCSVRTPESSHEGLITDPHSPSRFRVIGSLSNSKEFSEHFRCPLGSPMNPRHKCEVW
# Assay: Inhibition Assay
# Excerpt: Inhibition assay using ECE.
row,SMILES,IC50
1,CC(C)(C)CC(=O)Nc1ccc2c(c1)cc(C(=O)Nc1ccn[nH]1)n2Cc1ccccc1F,> 10000 nM
2,CC(C)(C)CC(=O)Nc1ccc2c(c1)cc(C(=O)Nc1cccc(C(=O)Nc3ccc(S(N)(=O)=O)cc3)c1)n2Cc1ccccc1F,10 nM
3,"CC(C)(C)CC(=O)Nc1ccc2c(c1)cc(C(=O)Nc1ccccc1)n2Cc1ccccc1F [ECE Inhibitor, 6]",1800 nM
4,"CC(C)(C)CC(=O)Nc1ccc2c(c1)cc(C(=O)Nc1nc3ccccc3[nH]1)n2Cc1ccccc1F [ECE Inhibitor, 8]",> 10000 nM
5,"CC(C)(C)CC(=O)Nc1ccc2c(c1)cc(C(=O)Nc1ccc(Cl)nc1)n2Cc1ccccc1F [ECE Inhibitor, 9]",220 nM
6,"CC(C)(C)CC(=O)Nc1ccc2c(c1)cc(C(=O)Nc1ccc(S(=O)(=O)Nc3ccccn3)cc1)n2Cc1ccccc1F [ECE Inhibitor, 10]",410 nM
7,"CC(C)(C)CC(=O)Nc1ccc2c(c1)cc(C(=O)Nc1cncc(C(=O)O)c1)n2Cc1ccccc1F [ECE Inhibitor, 13]",180 nM
8,"CC(C)(C)CC(=O)Nc1ccc2c(c1)cc(C(=O)Nc1cncc(C(=O)Nc3ccc(S(N)(=O)=O)cc3)c1)n2Cc1ccccc1F [ECE Inhibitor, 14]",10 nM
